This is an account of results in article PMC5050486 (Scientific Reports, 2016).

One series concerns the target T1, caspase-3 (Homo sapiens, UniProt P42574).
T1 construct: purchased BioVision
T1 sequence (P42574 29-277): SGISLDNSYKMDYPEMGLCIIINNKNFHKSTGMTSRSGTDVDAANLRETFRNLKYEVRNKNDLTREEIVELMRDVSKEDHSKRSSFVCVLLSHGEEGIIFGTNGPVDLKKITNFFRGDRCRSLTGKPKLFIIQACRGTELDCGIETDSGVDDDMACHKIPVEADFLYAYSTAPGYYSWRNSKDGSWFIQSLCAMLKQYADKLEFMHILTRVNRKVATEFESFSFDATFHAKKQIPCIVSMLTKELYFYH
Description: Host protease FRET test, caspase-3. The format is biochemical. To be noted: for inhibition at 33 µM: read-out: Percent Inhibition with 33 μM of drug, Casp 3.

The conditions of series [1]: cited from earlier work.
The target in another series is T2, human furin (Homo sapiens, UniProt P09958).
T2 construct: purchased New England Biolabs
Description: Host protease FRET test, furin. Type of series: biochemical. To be noted: for inhibition at 33 µM: read-out: Percent Inhibition with 33 μM of drug, Furin.

The next series concerns the target T3, caspase-1 (Homo sapiens, UniProt P29466).
T3 construct: purchased BioVision
T3 sequence (P29466 120-404): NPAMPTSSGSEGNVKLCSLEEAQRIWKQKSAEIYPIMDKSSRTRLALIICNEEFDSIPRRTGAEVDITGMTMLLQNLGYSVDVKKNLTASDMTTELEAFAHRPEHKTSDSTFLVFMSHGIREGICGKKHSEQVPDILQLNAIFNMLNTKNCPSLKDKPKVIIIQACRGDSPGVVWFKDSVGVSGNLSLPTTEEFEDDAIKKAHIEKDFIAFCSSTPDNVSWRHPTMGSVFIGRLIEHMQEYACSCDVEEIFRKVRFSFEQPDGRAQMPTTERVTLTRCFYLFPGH
Description: Host protease FRET test, caspase-1. Type of series: biochemical. To be noted: read-out: Percent Inhibition with 33 μM of drug, Casp 1.

The target in a further series is anthrax LF (Bacillus anthracis, UniProt P15917). Description: biochemical. To be noted: for inhibition at 33 µM: read-out: Percent Inhibition with 33 μM of drug, LF.
The next series concerns the target T4, calpain 1 (Homo sapiens, UniProt P07384).
T4 construct: purchased BioVision
T4 sequence (P07384 1-714): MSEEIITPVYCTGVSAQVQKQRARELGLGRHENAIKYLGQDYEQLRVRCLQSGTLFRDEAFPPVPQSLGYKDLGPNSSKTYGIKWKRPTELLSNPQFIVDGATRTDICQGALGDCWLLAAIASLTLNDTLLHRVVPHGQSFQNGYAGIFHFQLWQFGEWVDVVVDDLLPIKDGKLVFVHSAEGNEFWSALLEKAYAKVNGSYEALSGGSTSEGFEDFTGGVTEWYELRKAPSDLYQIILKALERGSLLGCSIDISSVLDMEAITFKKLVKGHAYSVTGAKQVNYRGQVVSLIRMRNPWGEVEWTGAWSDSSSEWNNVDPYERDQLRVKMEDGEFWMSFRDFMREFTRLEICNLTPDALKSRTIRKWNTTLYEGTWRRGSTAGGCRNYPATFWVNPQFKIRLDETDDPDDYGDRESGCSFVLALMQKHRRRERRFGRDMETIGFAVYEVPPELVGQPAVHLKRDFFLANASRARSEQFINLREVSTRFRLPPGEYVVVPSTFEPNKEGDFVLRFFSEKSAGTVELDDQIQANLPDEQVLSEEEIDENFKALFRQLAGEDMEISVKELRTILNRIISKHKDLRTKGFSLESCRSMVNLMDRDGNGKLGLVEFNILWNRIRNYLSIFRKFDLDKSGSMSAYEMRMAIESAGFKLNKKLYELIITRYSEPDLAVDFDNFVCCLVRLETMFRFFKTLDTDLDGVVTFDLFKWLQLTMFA
T4 sequence (P04632 1-268 partner): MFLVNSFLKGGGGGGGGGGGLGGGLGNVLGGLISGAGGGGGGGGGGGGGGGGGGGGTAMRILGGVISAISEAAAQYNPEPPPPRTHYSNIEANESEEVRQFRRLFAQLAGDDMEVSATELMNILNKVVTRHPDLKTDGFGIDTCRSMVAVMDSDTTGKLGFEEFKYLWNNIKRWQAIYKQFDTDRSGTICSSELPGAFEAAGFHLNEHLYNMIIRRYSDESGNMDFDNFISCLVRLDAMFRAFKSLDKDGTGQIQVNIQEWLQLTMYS
Description: Host protease FRET test, calpain. The format is biochemical. To be noted: for inhibition at 33 µM: read-out: Percent Inhibition with 33 μM of drug, Calpain.

The next series concerns the target cathepsin B (Homo sapiens, UniProt P07858). Description: Host protease FRET test, cathepsin B. To be noted: 33 μM drug, N/I = no FRET inhibition; for inhibition at 33 µM: read-out: Percent Inhibition with 33 μM of drug, Cath B. The format is biochemical.
Series [2] concerns LF-PA treated mouse macrophage RAW264.7 cells. The format is cell-based.
For series [3], the system named is Pseudomonas aeruginosa exotoxin A treated RAW264.7 cells. The format is cell-based, mouse.
The test system of series [4] is Cholera toxin treated RAW264.7 cells. Type of series: cell-based, mouse.
[5] abbreviates: 33 μM drug, FRET, N/I = no FRET inhibition.

Counter-ions that a name gives are not always drawn. Like-named read-outs stand apart in the source and are kept apart here. Where a SMILES comes first, the peptide text is derived from it. Where no end group is shown, it is not given here.

Sequence of anthrax LF (P15917 34-809 limits assumed): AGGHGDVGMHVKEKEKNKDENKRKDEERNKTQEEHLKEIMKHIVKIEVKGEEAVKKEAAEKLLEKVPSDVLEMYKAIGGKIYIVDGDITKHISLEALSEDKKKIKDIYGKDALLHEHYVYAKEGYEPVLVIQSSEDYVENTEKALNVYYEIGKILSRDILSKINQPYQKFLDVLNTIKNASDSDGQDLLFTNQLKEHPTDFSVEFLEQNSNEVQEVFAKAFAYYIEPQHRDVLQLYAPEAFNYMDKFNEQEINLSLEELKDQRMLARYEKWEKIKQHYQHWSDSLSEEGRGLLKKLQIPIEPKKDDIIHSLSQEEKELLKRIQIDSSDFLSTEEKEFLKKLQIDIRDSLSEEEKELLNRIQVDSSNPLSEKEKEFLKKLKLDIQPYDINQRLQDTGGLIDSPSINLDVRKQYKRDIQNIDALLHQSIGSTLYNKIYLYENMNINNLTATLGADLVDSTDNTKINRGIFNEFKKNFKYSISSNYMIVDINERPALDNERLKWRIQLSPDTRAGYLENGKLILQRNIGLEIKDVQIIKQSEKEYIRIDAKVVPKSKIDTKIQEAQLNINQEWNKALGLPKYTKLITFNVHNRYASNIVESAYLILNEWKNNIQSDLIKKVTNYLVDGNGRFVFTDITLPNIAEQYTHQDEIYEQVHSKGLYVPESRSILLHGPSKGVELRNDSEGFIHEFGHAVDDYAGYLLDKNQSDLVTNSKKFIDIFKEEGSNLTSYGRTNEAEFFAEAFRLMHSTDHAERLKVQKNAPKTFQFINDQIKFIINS
T2 sequence (P09958 108-794): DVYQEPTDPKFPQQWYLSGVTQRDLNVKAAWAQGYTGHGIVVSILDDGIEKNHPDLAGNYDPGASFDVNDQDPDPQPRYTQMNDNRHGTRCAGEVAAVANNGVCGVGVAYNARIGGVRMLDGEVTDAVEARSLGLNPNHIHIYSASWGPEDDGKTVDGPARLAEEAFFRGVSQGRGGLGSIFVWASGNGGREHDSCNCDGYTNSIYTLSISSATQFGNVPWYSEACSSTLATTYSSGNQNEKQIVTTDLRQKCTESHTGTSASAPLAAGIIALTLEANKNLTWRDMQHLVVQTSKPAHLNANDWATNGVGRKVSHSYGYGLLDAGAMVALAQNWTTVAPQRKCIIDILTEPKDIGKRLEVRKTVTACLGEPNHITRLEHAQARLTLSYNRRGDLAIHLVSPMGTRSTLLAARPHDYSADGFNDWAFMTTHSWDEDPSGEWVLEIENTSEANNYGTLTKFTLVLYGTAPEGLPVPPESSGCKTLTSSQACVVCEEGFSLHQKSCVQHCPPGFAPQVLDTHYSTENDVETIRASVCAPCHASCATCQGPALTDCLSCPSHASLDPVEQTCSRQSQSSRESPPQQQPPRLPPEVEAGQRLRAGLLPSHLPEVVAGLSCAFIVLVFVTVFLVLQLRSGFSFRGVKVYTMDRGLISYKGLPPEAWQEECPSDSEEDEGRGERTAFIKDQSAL

As to `CCCCCCCCCCCCOS(=O)(=O)O` [Sodium lauryl sulfate], the inhibition at 33 µM at caspase-3 stood at 83 ± 2.7%; on human furin it was 2 ± 4.56%; on caspase-1 it was 7 ± 3.06%; at anthrax LF, 93 ± 0.57%; at calpain 1, 95 ± 6.02%. In addition, in [1], the “Critical Micelle Concentration (CMC)” value was 8 mM. Also, at anthrax LF, the IC50 turned out to be 2900 ± 80 nM.

For the compound `CSCC[C@H](N)C(=O)N[C@@H](C)C(=O)N[C@@H](CCCNC(=N)N)C(=O)N[C@@H](Cc1ccc(O)cc1)C(=O)N[C@@H](CCCNC(=N)N)C(=O)N[C@@H](CS)C(=O)N[C@@H](CS)C(=O)N[C@@H](CCCNC(=N)N)C(=O)N[C@@H](CO)C(=O)N[C@@H](CCC(N)=O)C(=O)N[C@@H](CO)C(=O)N[C@@H](CCCNC(=N)N)C(=O)N[C@@H](CO)C(=O)N[C@@H](CCCNC(=N)N)C(=O)N[C@@H](Cc1ccc(O)cc1)C(=O)N[C@@H](Cc1ccc(O)cc1)C(=O)N[C@@H](CCCNC(=N)N)C(=O)O` [Human Sperm Protamine (1-17)] (H-MARYRCCRSQSRSRYYR-OH; N-terminus and C-terminus assumed), at anthrax LF, the inhibition at 33 µM amounted to 37 ± 0.7%.

As for `CCCCC(CC)COC(=O)CC(C(=O)OCC(CC)CCCC)S(=O)(=O)O` (centres unmarked) [Docusate sodium], at caspase-3 (setting [5]), the “Percent Inhibition with 33 μM of drug, Casp 3” value (from here on “Percent Inhibition … Casp 3”) was “N/I”. For the same compound, the “Percent Inhibition with 33 μM of drug, Cath B” value (“Percent Inhibition … Cath B” for short) at cathepsin B is on record as “N/I”. Also, the inhibition at 33 µM worked out at 69 ± 0.13% at human furin (setting [5]), 35 ± 0.01% at caspase-1 (setting [5]), 95 ± 0.28% on anthrax LF and 130 ± 0.19% on calpain 1 (setting [5]). The compound also registered a concentration for half-maximal inhibition (IC50) at anthrax LF of 670 ± 50 nM.

For “MPRRRRSSSRPVRRRRRPRVSR [Salmon Sperm Protamine (1-22)]”, the inhibition at 33 µM at human furin (setting [5]) is 91 ± 1.8%. In addition, at anthrax LF, the IC50 worked out at 1000 ± 40 nM and the inhibition at 33 µM stood at 98 ± 0.6%.

In the case of `CSCC[C@H](NC(=O)[C@H](C)NC(=O)[C@@H](N)CCCNC(=N)N)C(=O)N[C@@H](CCCNC(=N)N)C(=O)N[C@@H](CS)C(=O)N[C@@H](CS)C(=O)N[C@@H](CCCNC(=N)N)C(=O)N1CCC[C@H]1C(=O)N[C@@H](CCCNC(=N)N)C(=O)N[C@@H](Cc1ccc(O)cc1)C(=O)N[C@@H](CCCNC(=N)N)C(=O)N1CCC[C@H]1C(=O)N[C@@H](CCCNC(=N)N)C(=O)N[C@@H](CS)C(=O)N[C@@H](CCCNC(=N)N)C(=O)N[C@@H](CCCNC(=N)N)C(=O)N[C@@H](Cc1c[nH]cn1)C(=O)O` [Human Sperm Protamine (35-51)] (H-RAMRCCRPRYRPRCRRH-OH; N-terminus and C-terminus assumed), the inhibition at 33 µM on anthrax LF turned out to be 55 ± 0.9%.

On to “MPRRRRSSSR [Salmon Sperm Protamine (1-10)]”, for which, on human furin (setting [5]), the “Percent Inhibition with 33 μM of drug, Furin” value is recorded as “N/I”. Further, on anthrax LF, half-maximal inhibition (IC50) required 298000 ± 10 nM and the inhibition at 33 µM was determined as 28 ± 1%.

On to “QRQRSRRRRRRSCQTRR [Human Sperm Protamine (18-34)]”, for which, on anthrax LF, half-maximal inhibition (IC50) required 24000 ± 150 nM and the inhibition at 33 µM was 72 ± 2.1%.

In the case of “PVRRRRRPRVSR [Salmon Sperm Protamine (11-22)]”, the inhibition at 33 µM at human furin (setting [5]) stood at 84 ± 33%; at anthrax LF, 95 ± 0.1%. At anthrax LF, this compound gave an IC50 of 5000 ± 130 nM.

Regarding `CCCCCCCCCCCCCCCC[N+](C)(C)Cc1ccccc1` [Cetalkonium chloride], the “Percent Inhibition … Casp 3” value at caspase-3 (setting [5]) was “N/I”. Besides, the “Percent Inhibition … Cath B” value on cathepsin B is on record as “N/I”. Further, the inhibition at 33 µM on human furin (setting [5]) was determined as 8 ± 6.1%; on caspase-1 (setting [5]) it was 32 ± 1.17%; on anthrax LF, 106 ± 1.21%; on calpain 1 (setting [5]), 68 ± 14.8%. Besides, on anthrax LF, 160 ± 90 nM corresponded to half-maximal inhibition (IC50).

For the compound `CCCCCCCCCCCCCCCC(=O)OC[C@H](O)[C@H]1OC(=O)C(O)=C1O` [Ascorbic acid 6-palmitate], the “Protection against LF-PA mediated cell killing” value in series [2] was “complete protection”. The inhibition at 33 µM at caspase-3 (setting [5]) came to 88 ± 2.9%; on human furin (setting [5]) it was 16 ± 0.67%; at caspase-1 (setting [5]), 18 ± 1.12%; on anthrax LF it was 99 ± 1.9%; on calpain 1 (setting [5]), 24 ± 19.4%. Further, in series [3], the “Protection against PE-mediated cell killing” value is recorded as “substantial protection”. On cathepsin B, the “Percent Inhibition … Cath B” value is “N/I”. Also, the “Critical Micelle Concentration (CMC)” value in series [1] is given as 0.8 mM. The “Protection against CT-mediated cell killing” value in series [4] is on record as “substantial protection”. For the same compound, half-maximal inhibition against anthrax LF (IC50) required 460 ± 260 nM.

Regarding `CCOc1nc2cccc(C(=O)OC(C)OC(=O)OC3CCCCC3)c2n1Cc1ccc(-c2ccccc2-c2nnn[nH]2)cc1` (centres unmarked) [Candesartan cilexetil], the “Percent Inhibition … Casp 3” value at caspase-3 (setting [5]) is reported as “N/I”. Further, the inhibition at 33 µM was found to be 10 ± 3.1% on cathepsin B, 88 ± 0.12% at human furin (setting [5]), 16 ± 0.1% on caspase-1 (setting [5]) and 100 ± 0.07% at anthrax LF. This compound also gave an IC50 at anthrax LF of 400 ± 20 nM. Further, the “Percent Inhibition with 33 μM of drug, Calpain” value on calpain 1 (setting [5]) is “N/I”.

Turning to `CCCCCCCCCCCC[N+](C)(C)CCOc1ccccc1` [Domiphen bromide], on caspase-3 (setting [5]), the “Percent Inhibition … Casp 3” value is listed as “N/I”. Besides, the inhibition at 33 µM on cathepsin B came to 23 ± 1.5%; at human furin (setting [5]), 7 ± 6.64%; on caspase-1 (setting [5]), 17 ± 2.17%; on anthrax LF, 103 ± 0.82%. Also, half-maximal inhibition on anthrax LF (IC50) required 290 ± 30 nM. Moreover, the “Percent Inhibition with 33 μM of drug, Calpain” value at calpain 1 (setting [5]) is “N/I”.

Consider `CCCCCCCCCCCCc1ccccc1S(=O)(=O)O` [Sodium dodecyl benzenesulfonate], for which the inhibition at 33 µM was found to be 77 ± 2.5% at caspase-3 (setting [5]); 96 ± 2.5% at cathepsin B; 6 ± 3.34% on human furin (setting [5]); 14 ± 2.06% at caspase-1 (setting [5]); 104 ± 0.4% on anthrax LF; 26 ± 7.01% at calpain 1 (setting [5]). Further, the IC50 on anthrax LF (read-out: LF IC50) was 590 ± 80 nM.

Turning to “RRRRRGGRRRR [Salmon Sperm Protamine (23-33)]”, the inhibition at 33 µM on human furin (setting [5]) was determined as 150 ± 5.3%. Besides, at anthrax LF, 15000 ± 10 nM corresponded to half-maximal inhibition (IC50) and the inhibition at 33 µM worked out at 93 ± 2.4%.

For “PVRRRRRPRVSRRRRRRGGRRRR [Salmon Sperm Protamine (11-33)]”, the inhibition at 33 µM at human furin (setting [5]) was 86 ± 1.2%; at anthrax LF, 99 ± 0.2%. For the same compound, the IC50 against anthrax LF came to 10000 ± 40 nM.

Regarding “MARYRCCRSQSRSRYYRQRQRSRRRRRRSCQTRRRAMRCCRPRYRPRCRRH (cysteines drawn unpaired) [Human Sperm Protamine (1-51)]”, the inhibition at 33 µM was 97 ± 1.7% on human furin (setting [5]) and 88 ± 1.2% at anthrax LF.

The term inhibition denotes the drop in the measured response relative to a control, in per cent. A word on the IC50: it is the concentration that gives 50% inhibition.
